Measurements taken from the NIST ThermoML archive (doi:10.1016/j.fluid.2015.10.016).
Numbers after ± are expanded uncertainties.

How the values were obtained:
[1] = Molar enthalpy of transition or fusion; conditions: Crystal; DSC
[2] = Crystal; DTA

Row | Molar enthalpy of transition or fusion [1] [kcal/mol] | Normal melting temperature [2] [°C] | Structure (SMILES)
1 | 2.88 ± 0.0908 | -0.2 ± 0.4 | CCCC[N+]1(C)CCCC1.O=S(=O)([O-])C(F)(F)F [1-butyl-1-methylpyrrolidinium trifluoromethanesulfonate]
2 | 2.31 ± 0.0956 | -27 ± 1 | OCCc1ccccc1 [2-phenylethanol]
3 | 2.25 ± 0.0789 | -8.8 ± 0.4 | CCCC[N+]1(C)CCCC1.N#CC(=C=[N-])C#N [1-butyl-1-methylpyrrolidinium tricyanomethanide]
4 | 4.97 ± 0.117 | 19.7 ± 0.4 | CCCC[N+]1(C)CCCC1.N#C[B-](C#N)(C#N)C#N [1-butyl-1-methylpyrrolidinium tetracyanoborate]
